Assay results as given in patent publication US20250302762A1, “NANOMATERIAL DELIVERY VEHICLE AND METHOD OF USE THEREOF” (University of Connecticut, priority 2022, published 2025).

Legend:
cells = assay: Delivery of small RNAs, mRNAs and albumin via Arg-JBNP; format: cell-based; conditions: FIGS. 3A-3E
Protocol: Multi-functional JBNPs. Multi-functional JBNPs were prepared by mixing a cargo molecule (e.g., RNA, biologically active small molecule, protein) with the multi-functional JBNT at an appropriate molar ratio in nuclease-free water, followed by sonication with a sonicator at 100% amplitude, for 2 min and 30 s, at room temperature. The concentrations of different components are shown as below: c(JBNT)=1 mg/mL; c(siRNA)=5 uM; c(mRNA)=0.05 mg/mL. c(protein)=0.1 mg/mL. The ratios (volume to volume ratio) for each cargo: (4:1 ratio (Arg-JBNT:siRNA), (20:1 ratio Arg-JBNT:mRNA), (3:1 Arg-JBNT: protein).
Arg-JBNP-siRNA were assembled by mixing Arg-JBNT(1 mg/ml) and siRNA-AF488 (5 uM) in nuclease-free water as ratio of volume to volume of 4:1. Arg-JBNP-mRNA were assembled by mixing Arg-JBNT (1 mg/ml) to Cas9mRNA (0.05 mg/ml) as ratio of volume to volume of 20:1. Arg-JBNP-albumin were assembled by mixing Arg-JBNT (1 mg/ml) to albumin (0.1 mg/ml) as ratio of volume to volume, 3:1. Then mixture of Arg-JBNT and cargoes in nuclease-free water are sonicated with sonicator at 100% amplitude for 2 min and 30 sec.

[1] = Buffering capacity (acid-base titration), proton sponge effect; format: physicochemical; conditions: FIG. 4D
Protocol: JBNP Characterization. The particles and ζ potential of the JBNPs were measured by dynamic light scattering (Zetasizer) and the morphology was observed by transmission electron microscope (TEM). The get retardation assay was conducted at 0.8% low-melting agarose gel followed by electrophoresis. The UV-Vis absorption spectra were recorded with a NanoDrop One. The buffering capacity of JBNPs and polymers, JBNP and cationic polymers at the same 0.08 μmol were titrated by either adding the 2 μL of 10 mM HCl or 10 mM NaOH.

| Structure (SMILES) | delivery of cargo (cells) | proton-sponge effect capacity [1] |
| --- | --- | --- |
| CNc1nc2c(c(N)nc(=O)n2CCN[C@@H](CCCNC(=N)N)C(=O)O)c(=O)[nH]1 [ArgJBNTs] | successful delivery of small RNAs, mRNAs, and albumin (protein) | – |
| CNc1nc2c(c(N)nc(=O)n2CCN[C@@H](Cc2c[nH]cn2)C(=O)O)c(=O)[nH]1 [Histidine-JBNTs] | – | superior proton-sponge effect capacity |
